Measured values reported in article PMC2193169 (The Journal of Experimental Medicine, 2000).

Legend:
Cathepsin Z (Cat Z) = Cathepsin Z (Cat Z) (Mus musculus, UniProt Q9WUU7); assay: competition of […]-JPM565 active-site labeling in transfected […] cell lysate; type: biochemical
Cathepsin F (Cat F) = molecular target: T1, Cathepsin F (Cat F) (Mus musculus, UniProt Q9R013); type: cell-based
T1 sequence (Q9R013 249-462): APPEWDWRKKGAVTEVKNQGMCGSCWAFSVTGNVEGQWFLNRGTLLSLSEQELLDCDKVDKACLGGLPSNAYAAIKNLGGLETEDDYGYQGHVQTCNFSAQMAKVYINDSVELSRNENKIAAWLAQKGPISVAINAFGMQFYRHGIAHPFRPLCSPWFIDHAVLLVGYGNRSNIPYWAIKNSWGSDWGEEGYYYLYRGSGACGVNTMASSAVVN

Chain of Cathepsin Z (Cat Z) (Q9WUU7 64-306): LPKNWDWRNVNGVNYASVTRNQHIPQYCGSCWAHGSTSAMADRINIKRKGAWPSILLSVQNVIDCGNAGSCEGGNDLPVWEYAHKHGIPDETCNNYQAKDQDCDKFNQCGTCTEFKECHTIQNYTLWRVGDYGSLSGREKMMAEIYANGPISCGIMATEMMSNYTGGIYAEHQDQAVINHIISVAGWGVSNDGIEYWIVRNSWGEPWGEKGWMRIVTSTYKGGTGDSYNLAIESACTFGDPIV

Compound | inhibits at this concentration (Cathepsin Z (Cat Z)) | complete inhibition (Cathepsin F (Cat F))
CC(C)C[C@H](NC(=O)[C@H]1O[C@@H]1C(=O)O)C(=O)NCCCCNC(=N)N [E64] | 20 (inhibits at this concentration) μM | –
CC(C)C[C@H](NC(=O)N1CCOCC1)C(=O)N[C@H](/C=C/S(=O)(=O)c1ccccc1)CCc1ccccc1 [LHVS] | – | 1 (complete inhibition) μM
